Results: patent publication US20240197737A1, “APPLICATION OF COMPOUND IN PREPARATION OF INHIBITORY DRUG TARGETING ERBB2 MUTANT” (SHANGHAI PHARMACEUTICALS HOLDING CO., LTD., priority 2021, published 2024)

Columns and labels:
ErbB2 (V777L) = target: T1, ErbB2 (V777L) (Homo sapiens, UniProt P04626, V777L); test: ErbB2 mutant inhibition assay (33P-ATP radiometric kinase assay, Reaction Biology); assay type: biochemical; details: ATP 10 μM, 20 min preincubation, 2 h reaction; read-out: Compound IC50 ErbB2 (V777L)
T1 construct: purchased Reaction Biology Corporation
T1 sequence (P04626 23-1255 V777L): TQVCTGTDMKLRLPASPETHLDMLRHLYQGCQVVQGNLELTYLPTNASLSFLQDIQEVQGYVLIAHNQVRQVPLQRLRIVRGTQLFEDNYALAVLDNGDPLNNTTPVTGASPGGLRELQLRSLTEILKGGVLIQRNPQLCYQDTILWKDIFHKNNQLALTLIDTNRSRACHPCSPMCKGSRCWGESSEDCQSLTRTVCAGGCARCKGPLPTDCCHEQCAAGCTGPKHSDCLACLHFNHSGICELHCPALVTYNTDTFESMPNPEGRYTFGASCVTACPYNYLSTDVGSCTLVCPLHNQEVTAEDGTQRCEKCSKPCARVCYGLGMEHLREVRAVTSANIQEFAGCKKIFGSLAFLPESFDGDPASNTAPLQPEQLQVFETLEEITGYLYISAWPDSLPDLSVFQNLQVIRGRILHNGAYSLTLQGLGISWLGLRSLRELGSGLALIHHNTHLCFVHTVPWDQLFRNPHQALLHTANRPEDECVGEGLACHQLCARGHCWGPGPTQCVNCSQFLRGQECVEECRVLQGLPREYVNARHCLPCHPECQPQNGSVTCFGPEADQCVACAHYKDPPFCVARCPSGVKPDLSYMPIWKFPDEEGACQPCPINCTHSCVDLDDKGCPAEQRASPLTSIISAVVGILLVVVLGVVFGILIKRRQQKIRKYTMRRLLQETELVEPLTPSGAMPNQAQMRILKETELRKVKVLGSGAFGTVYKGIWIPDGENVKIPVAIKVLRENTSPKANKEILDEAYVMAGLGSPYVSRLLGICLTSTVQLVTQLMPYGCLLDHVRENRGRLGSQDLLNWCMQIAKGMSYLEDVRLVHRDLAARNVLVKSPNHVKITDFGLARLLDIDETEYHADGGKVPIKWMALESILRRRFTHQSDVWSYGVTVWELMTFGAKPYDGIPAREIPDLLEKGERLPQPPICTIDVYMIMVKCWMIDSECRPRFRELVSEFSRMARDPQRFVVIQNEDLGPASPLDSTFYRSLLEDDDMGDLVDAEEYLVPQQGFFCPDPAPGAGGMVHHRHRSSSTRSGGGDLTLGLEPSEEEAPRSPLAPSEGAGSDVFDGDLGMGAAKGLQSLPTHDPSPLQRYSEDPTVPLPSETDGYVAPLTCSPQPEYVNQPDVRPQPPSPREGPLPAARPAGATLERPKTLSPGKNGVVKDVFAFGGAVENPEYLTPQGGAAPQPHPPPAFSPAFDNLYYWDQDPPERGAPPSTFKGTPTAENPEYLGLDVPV
Description: (§1) The reagents and materials used in the assay, as well as the testing procedure, were provided and carried out by Reaction Biology Corporation. The specific steps were as follows: • 1. […] Conditions for the enzyme reaction assay: The test compounds were incubated for 20 minutes, ATP concentration was set at 10 μM, and the total duration of the enzyme reaction was 2 hours. • 3. Experimental steps for the enzyme reaction
(§2) The enzyme reaction buffer was 20 mM HEPES at a pH of 7.5, 10 mM MgCl2, 2 mM MnCl2, 1 mM EGTA, 0.01% Brij35, 0.02 mg/mL BSA, 0.1 mM Na3VO4, 2 mM DTT, and 1% DMSO.
(§3) Kinase activity %=(Remaining kinase activity of test compound samples/Kinase activity of solvent control samples (DMSO))*100%
(§4) The IC50 of the compound was calculated by fitting the kinase activity % at different compound concentrations.

ErbB2 (D769Y) = target: T2, ErbB2 (D769Y) (Homo sapiens, UniProt P04626, D769Y); test: as above; assay type: biochemical; details: ATP 10 μM, 20 min preincubation, 2 h reaction; read-out: Compound IC50 ErbB2 (D769Y)
T2 construct: purchased Reaction Biology Corporation
T2 sequence (P04626 23-1255 D769Y): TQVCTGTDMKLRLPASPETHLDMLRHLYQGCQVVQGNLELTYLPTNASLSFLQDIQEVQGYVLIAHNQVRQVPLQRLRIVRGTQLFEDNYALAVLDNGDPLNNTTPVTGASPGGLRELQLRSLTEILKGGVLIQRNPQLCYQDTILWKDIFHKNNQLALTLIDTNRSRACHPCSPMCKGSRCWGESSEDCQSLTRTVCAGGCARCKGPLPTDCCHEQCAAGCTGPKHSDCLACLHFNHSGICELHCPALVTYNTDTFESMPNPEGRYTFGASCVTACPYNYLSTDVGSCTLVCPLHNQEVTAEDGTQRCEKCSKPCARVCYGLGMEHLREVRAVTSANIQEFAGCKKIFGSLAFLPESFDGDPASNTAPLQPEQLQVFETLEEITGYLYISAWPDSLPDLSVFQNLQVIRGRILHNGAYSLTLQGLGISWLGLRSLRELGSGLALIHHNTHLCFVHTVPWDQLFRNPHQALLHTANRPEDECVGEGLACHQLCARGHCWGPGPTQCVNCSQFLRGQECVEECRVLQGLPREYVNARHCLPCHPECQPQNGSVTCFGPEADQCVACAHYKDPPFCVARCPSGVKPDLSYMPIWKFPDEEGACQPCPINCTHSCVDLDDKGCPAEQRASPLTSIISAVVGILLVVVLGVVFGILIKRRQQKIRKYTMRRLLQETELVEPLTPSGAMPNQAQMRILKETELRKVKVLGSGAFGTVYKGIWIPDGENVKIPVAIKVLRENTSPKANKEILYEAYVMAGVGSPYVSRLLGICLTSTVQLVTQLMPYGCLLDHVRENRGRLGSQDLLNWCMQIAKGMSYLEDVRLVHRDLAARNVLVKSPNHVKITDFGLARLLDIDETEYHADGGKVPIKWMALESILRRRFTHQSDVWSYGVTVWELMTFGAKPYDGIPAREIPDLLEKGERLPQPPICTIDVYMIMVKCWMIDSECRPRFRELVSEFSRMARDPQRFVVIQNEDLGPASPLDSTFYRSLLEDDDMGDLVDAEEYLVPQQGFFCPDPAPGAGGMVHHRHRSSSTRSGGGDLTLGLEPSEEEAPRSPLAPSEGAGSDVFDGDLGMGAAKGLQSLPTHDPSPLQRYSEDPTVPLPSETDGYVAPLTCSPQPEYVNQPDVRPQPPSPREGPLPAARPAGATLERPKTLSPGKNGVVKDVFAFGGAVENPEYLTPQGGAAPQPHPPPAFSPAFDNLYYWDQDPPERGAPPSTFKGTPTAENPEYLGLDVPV
Description: as §1, §2, §3, §4

ErbB2 (R896C) = target: T3, ErbB2 (R896C) (Homo sapiens, UniProt P04626, R896C); test: as above; assay type: biochemical; details: ATP 10 μM, 20 min preincubation, 2 h reaction; read-out: Compound IC50 ErbB2 (R896C)
T3 construct: purchased Reaction Biology Corporation
T3 sequence (P04626 23-1255 R896C): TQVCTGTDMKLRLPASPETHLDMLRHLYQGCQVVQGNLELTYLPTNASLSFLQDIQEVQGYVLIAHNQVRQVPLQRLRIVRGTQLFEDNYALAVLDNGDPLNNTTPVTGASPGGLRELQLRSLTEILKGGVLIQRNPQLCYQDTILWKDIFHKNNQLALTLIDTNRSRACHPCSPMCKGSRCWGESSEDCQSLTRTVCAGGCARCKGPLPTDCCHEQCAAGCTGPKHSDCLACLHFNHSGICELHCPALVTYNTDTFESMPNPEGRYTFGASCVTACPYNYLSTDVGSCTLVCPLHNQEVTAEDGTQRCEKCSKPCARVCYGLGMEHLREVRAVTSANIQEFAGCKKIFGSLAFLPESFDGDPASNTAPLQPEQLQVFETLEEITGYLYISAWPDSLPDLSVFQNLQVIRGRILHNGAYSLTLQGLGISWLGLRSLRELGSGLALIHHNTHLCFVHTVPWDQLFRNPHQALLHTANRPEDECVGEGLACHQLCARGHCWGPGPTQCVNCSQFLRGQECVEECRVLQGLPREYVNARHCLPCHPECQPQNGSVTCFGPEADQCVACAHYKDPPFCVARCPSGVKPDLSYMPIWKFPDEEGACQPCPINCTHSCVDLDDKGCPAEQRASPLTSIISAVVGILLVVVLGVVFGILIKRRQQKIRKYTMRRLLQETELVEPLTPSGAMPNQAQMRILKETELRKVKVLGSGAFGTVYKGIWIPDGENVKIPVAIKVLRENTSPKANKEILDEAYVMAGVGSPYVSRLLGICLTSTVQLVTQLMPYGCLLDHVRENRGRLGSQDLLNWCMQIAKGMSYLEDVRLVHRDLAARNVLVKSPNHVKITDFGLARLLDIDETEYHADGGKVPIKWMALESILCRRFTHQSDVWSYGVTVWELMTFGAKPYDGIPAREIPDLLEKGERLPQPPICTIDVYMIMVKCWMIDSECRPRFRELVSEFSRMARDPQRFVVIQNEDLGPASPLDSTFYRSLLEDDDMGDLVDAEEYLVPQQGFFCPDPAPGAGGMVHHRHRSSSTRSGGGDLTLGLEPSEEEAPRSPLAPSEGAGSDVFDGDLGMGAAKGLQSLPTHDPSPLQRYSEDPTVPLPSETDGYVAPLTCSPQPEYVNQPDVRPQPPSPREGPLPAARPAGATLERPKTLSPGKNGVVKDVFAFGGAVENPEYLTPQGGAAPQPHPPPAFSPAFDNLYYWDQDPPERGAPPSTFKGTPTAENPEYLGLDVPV
Description: as §1, §2, §3, §4

ErbB2 (D769H) = target: T4, ErbB2 (D769H) (Homo sapiens, UniProt P04626, D769H); test: as above; assay type: biochemical; details: ATP 10 μM, 20 min preincubation, 2 h reaction; read-out: Compound IC50 ErbB2 (D769H)
T4 construct: purchased Reaction Biology Corporation
T4 sequence (P04626 23-1255 D769H): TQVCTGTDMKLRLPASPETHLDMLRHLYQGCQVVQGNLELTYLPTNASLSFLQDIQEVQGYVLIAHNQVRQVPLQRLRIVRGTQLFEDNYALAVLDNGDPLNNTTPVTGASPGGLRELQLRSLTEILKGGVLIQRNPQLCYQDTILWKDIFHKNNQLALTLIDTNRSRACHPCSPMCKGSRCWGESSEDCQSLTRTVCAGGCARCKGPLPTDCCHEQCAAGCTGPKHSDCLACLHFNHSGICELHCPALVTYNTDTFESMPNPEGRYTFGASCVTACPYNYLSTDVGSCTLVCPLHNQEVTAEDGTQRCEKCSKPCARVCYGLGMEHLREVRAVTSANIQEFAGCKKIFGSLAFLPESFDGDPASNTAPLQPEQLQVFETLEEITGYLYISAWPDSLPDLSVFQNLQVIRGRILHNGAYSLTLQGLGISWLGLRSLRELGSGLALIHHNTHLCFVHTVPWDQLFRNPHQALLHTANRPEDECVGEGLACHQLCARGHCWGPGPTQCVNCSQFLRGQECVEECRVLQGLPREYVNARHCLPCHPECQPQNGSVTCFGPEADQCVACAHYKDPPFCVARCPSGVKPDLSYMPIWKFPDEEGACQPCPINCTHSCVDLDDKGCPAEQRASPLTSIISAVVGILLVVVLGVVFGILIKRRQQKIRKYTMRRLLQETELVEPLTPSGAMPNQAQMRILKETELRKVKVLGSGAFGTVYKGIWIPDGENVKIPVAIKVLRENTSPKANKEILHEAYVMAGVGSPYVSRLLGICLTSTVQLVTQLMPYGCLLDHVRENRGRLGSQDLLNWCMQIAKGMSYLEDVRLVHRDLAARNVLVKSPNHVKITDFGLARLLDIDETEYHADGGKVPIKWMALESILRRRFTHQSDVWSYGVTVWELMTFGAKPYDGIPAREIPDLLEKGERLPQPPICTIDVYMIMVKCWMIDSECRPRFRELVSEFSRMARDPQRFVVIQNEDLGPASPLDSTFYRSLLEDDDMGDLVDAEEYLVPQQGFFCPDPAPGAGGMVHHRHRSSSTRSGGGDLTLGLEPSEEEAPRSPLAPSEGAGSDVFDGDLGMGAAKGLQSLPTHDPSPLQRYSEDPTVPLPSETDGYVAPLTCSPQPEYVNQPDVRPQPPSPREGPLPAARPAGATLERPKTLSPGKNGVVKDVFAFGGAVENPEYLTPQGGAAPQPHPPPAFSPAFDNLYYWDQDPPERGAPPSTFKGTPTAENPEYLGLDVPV
Description: as §1, §2, §3, §4

[1] = system: NCI-H1781 ErbB2 exon20ins (G766 > VC); test: ErbB2 mutant cell inhibition test (CTG, 72 hours); assay type: cell-based, Human; details: Homo sapiens; NCI-H1781 ErbB2 exon20ins (G766 > VC), 72 hours, CTG
Description: Cells were cultured, harvested during their logarithmic growth phase, and counted using a platelet counter. Cell viability was verified to be above 90% by trypan blue exclusion assay. After in vitro culture, 2×10^6 cells were obtained. The cell suspension was aliquoted into a 96-well plate at 1×10^3 cells per well (90 μL/well), and incubated overnight under conditions of 37° C., 5% CO2, and 95% humidity. A 10× drug solution was prepared, with a maximum concentration of 10 μM for the assay, and serially diluted 3-fold to nine concentrations. 10 μL of the drug solution was added to each well of the 96-well plate inoculated with the cells, and three duplicate wells were set for each drug concentration. The 96-well plate, now containing the drug-treated cells, was cultured under conditions of 37° C., 5% CO2, and 95% humidity for an additional 72 hours before CTG analysis was performed.

[2] = system: Ba/F3 ErbB2 A775_G776insYVMA mouse xenograft; test: Efficacy testing in NPSG mouse xenograft model; assay type: in vivo; details: 20 mg/kg
Text: NPSG male mice (Shanghai Jihui Laboratory Animal Care Co., Ltd., Certificate: No. 20170012006783) were subcutaneously inoculated on the right shoulder with Ba/F3 ErbB2 A775_G776insYVMA cells (cultured in vitro, 9×10^7 cells obtained). When the average tumor volume reached 130 mm^3, the mice were randomly divided into six groups based on tumor volume and body weight, with 10 mice in each group, and administration was started immediately. After the initiation of administration, the mice's body weight and tumor volume were measured twice a week, with the administration continued until Day 13 of the experiment. On Day 14 of the experiment, post-administration sample collection was conducted for each group.
Note: Data are presented as mean±standard error; control group is the group without any compound administered.

SMILES | IC50 (ErbB2 (V777L)) [nM] | IC50 (ErbB2 (D769Y)) [nM] | IC50 (ErbB2 (R896C)) [nM] | IC50 (ErbB2 (D769H)) [nM] | IC50 [1] [nM] | Tumor volume ([2]; Day 0, mean ± standard error) [mm^3] | Tumor volume ([2]; Day 4, mean ± standard error) [mm^3] | Tumor volume ([2]; Day 7, mean ± standard error) [mm^3] | Tumor volume ([2]; Day 11, mean ± standard error) [mm^3] | Tumor volume ([2]; Day 13, mean ± standard error) [mm^3] | TGI (%) ([2]; administration for 13 days) | Efficacy (in words) ([2]; continuous administration for 13 days)
Cc1cc(Nc2ncnc3ccc(NC(=O)/C=C/[C@H]4CCCN4C)cc23)ccc1Oc1cnc2ccnn2c1 | 0.279 | 0.6 | 0.336 | < 0.152 | – | – | – | – | – | – | – | –
Cc1cc(Nc2ncnc3ccc(NC(=O)/C=C/[C@H]4CCCN4)cc23)ccc1Oc1cc2nncn2cn1 | 0.357 | 0.247 | 1.13 | 0.422 | – | – | – | – | – | – | – | –
CCOc1cc2ncc(C#N)c(Nc3ccc(OCc4ccccn4)c(Cl)c3)c2cc1NC(=O)/C=C/[C@H]1CCCN1C [Pyrotinib, reference compound] | 10.5 | 91.7 | 5.24 | 15.6 | 73.2 | 130.4 ± 5.4 | 154.6 ± 4.87 | 328.2 ± 13.39 | 405.4 ± 19.38 | 534.8 ± 38.29 | 55 | moderate efficacy
Cc1cc(Nc2ncnc3ccc(NC(=O)/C(F)=C/[C@H]4CCCN4C)cc23)ccc1Oc1cc2nncn2cn1 | 2.41 | 0.811 | 4.84 | 1.69 | – | – | – | – | – | – | – | –
Cc1cc(Nc2ncnc3ccc(NC(=O)/C=C/C4COCCN4)cc23)ccc1Oc1cc2nncn2cn1 (stereo not drawn) | 0.438 | 0.892 | 0.973 | 0.72 | – | – | – | – | – | – | – | –
Cc1cc(Nc2ncnc3ccc(NC(=O)/C=C/[C@H]4CCCN4C)cc23)ccc1Oc1ccc2nccn2n1 | 14.9 | 38.9 | 3.7 | 9.11 | – | – | – | – | – | – | – | –

Compounds with a lower IC50 (ErbB2 (V777L)), results first:

IC50 (ErbB2 (V777L)) [nM] | IC50 (ErbB2 (D769Y)) [nM] | IC50 (ErbB2 (R896C)) [nM] | IC50 (ErbB2 (D769H)) [nM] | IC50 [1] [nM] | SMILES | Tumor volume ([2]; Day 0, mean ± standard error) [mm^3] | Tumor volume ([2]; Day 4, mean ± standard error) [mm^3] | Tumor volume ([2]; Day 7, mean ± standard error) [mm^3] | Tumor volume ([2]; Day 11, mean ± standard error) [mm^3] | Tumor volume ([2]; Day 13, mean ± standard error) [mm^3] | TGI (%) ([2]; administration for 13 days) | Efficacy (in words) ([2]; continuous administration for 13 days)
< 0.152 | < 0.152 | < 0.152 | < 0.152 | – | CCOc1cc2ncnc(Nc3ccc(Oc4ccn5ncnc5c4)c(C)c3)c2cc1NC(=O)/C=C/[C@H]1CCCN1C | – | – | – | – | – | – | –
< 0.152 | < 0.152 | 0.187 | < 0.152 | – | CN1CCC[C@@H]1/C=C/C(=O)Nc1ccc2ncnc(Nc3ccc(Oc4cc5nncn5cn4)c(Cl)c3)c2c1 | – | – | – | – | – | – | –
0.235 | 2.44 | 0.978 | 0.998 | – | CCOc1cc2ncnc(Nc3ccc(Oc4ccn5ncnc5c4)c(C)c3)c2cc1NC(=O)/C(F)=C/[C@@H]1CCCN1C | – | – | – | – | – | – | –
0.224 | 0.216 | 0.741 | 0.283 | – | Cc1cc(Nc2ncnc3ccc(NC(=O)/C=C/[C@H]4CCCN4C)cc23)ccc1Oc1cc2nccn2cn1 | – | – | – | – | – | – | –
